Data from paper PMC9500072, “Topical application of an irreversible small molecule inhibitor of lysyl oxidases ameliorates skin scarring and fibrosis” (Nature Communications, 2022).
“And” between values parts separate entries of the source, which are not always exact repeats. Equal values may be shown once.

How the values were obtained:
[1] = system: Purinergic P2Y; test: Eurofins panel 268810; assay type: binding, rat; details: 10 µM
[2] = target: Neuropeptide Y Y2 (Homo sapiens, UniProt P49146); test: Eurofins panel 257110; assay type: binding
[3] = target: Interleukin IL-1 (Mus musculus, UniProt P13504); test: Eurofins panel 243520; assay type: binding
[4] = target: Dopamine D4.2 (Homo sapiens, UniProt P21917, DEL265-296); test: Eurofins panel 219900; assay type: binding
Sequence of Dopamine D4.2 (P21917 with tags, fused parts or gaps DEL265-296): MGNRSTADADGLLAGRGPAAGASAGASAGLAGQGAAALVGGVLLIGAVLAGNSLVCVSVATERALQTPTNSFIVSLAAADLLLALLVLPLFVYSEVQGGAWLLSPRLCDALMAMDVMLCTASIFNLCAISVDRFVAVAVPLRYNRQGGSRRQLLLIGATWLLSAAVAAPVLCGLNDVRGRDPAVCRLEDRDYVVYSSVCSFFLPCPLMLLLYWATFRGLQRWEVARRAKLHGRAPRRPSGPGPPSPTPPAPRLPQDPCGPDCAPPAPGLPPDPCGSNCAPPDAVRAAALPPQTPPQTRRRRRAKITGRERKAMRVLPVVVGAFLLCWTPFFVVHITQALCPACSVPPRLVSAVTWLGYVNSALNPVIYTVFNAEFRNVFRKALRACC

[5] = target: Bradykinin B1 (Homo sapiens, UniProt P46663); test: Eurofins panel 212510; assay type: binding
Sequence of Bradykinin B1 (P46663 whole entry): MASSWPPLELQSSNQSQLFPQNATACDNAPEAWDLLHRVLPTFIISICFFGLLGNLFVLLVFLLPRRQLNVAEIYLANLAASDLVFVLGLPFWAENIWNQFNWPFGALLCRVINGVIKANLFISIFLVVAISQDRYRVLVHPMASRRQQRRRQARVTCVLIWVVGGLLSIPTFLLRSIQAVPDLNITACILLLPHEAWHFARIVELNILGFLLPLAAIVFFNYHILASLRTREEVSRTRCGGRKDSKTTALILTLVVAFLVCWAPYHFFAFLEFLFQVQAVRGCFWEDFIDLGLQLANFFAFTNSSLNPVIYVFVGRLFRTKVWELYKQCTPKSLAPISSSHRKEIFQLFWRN

[6] = system: Phorbol Ester; test: Eurofins panel 264500; assay type: binding, mouse; details: 10 µM
[7] = target: Epidermal Growth Factor (EGF) (Homo sapiens, UniProt P00533); test: Eurofins panel 225510; assay type: binding
Sequence of Epidermal Growth Factor (EGF) (P00533 25-1210): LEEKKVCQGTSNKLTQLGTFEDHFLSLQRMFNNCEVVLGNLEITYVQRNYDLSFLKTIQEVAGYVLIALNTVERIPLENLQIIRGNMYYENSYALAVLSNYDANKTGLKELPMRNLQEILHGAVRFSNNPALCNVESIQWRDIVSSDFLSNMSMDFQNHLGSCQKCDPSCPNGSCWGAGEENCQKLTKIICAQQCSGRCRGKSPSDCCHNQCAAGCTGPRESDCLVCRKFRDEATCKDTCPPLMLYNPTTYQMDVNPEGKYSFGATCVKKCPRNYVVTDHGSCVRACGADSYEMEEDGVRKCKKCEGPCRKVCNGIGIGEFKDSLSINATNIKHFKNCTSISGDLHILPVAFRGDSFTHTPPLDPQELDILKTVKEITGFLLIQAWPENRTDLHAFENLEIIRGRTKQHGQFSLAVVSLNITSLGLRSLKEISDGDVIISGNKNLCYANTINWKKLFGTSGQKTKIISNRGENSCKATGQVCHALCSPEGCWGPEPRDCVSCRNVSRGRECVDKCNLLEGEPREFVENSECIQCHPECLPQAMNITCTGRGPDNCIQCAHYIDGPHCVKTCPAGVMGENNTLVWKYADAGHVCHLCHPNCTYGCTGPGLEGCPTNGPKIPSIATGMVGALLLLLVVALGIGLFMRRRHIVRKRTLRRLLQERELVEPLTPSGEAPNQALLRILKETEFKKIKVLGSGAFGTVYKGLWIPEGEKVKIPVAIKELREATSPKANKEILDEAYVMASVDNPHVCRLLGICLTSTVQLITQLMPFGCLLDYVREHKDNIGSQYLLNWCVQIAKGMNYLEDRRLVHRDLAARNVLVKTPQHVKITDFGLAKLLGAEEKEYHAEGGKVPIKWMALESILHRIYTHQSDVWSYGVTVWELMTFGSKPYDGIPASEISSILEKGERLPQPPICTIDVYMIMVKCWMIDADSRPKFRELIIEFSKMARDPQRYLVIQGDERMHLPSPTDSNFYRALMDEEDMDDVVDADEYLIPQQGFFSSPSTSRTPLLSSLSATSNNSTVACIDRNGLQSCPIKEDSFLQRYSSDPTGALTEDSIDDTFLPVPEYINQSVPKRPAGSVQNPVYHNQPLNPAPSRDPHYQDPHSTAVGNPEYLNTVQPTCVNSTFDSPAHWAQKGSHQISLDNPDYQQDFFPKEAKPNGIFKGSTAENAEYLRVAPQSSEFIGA

[8] = target: Sigma σ1 (Homo sapiens, UniProt Q99720); test: Eurofins panel 278110; assay type: binding
Sequence of Sigma σ1 (Q99720 whole entry): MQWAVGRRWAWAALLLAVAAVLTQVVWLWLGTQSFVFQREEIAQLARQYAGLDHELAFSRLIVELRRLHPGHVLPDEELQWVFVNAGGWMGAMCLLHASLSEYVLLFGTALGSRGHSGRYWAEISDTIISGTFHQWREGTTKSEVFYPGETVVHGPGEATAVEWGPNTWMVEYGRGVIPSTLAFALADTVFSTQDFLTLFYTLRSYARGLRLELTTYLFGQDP

[9] = target: Calcium Channel N-Type (Rattus norvegicus, UniProt Q02294); test: Eurofins panel 216000; assay type: binding
Sequence of Calcium Channel N-Type (Q02294 whole entry): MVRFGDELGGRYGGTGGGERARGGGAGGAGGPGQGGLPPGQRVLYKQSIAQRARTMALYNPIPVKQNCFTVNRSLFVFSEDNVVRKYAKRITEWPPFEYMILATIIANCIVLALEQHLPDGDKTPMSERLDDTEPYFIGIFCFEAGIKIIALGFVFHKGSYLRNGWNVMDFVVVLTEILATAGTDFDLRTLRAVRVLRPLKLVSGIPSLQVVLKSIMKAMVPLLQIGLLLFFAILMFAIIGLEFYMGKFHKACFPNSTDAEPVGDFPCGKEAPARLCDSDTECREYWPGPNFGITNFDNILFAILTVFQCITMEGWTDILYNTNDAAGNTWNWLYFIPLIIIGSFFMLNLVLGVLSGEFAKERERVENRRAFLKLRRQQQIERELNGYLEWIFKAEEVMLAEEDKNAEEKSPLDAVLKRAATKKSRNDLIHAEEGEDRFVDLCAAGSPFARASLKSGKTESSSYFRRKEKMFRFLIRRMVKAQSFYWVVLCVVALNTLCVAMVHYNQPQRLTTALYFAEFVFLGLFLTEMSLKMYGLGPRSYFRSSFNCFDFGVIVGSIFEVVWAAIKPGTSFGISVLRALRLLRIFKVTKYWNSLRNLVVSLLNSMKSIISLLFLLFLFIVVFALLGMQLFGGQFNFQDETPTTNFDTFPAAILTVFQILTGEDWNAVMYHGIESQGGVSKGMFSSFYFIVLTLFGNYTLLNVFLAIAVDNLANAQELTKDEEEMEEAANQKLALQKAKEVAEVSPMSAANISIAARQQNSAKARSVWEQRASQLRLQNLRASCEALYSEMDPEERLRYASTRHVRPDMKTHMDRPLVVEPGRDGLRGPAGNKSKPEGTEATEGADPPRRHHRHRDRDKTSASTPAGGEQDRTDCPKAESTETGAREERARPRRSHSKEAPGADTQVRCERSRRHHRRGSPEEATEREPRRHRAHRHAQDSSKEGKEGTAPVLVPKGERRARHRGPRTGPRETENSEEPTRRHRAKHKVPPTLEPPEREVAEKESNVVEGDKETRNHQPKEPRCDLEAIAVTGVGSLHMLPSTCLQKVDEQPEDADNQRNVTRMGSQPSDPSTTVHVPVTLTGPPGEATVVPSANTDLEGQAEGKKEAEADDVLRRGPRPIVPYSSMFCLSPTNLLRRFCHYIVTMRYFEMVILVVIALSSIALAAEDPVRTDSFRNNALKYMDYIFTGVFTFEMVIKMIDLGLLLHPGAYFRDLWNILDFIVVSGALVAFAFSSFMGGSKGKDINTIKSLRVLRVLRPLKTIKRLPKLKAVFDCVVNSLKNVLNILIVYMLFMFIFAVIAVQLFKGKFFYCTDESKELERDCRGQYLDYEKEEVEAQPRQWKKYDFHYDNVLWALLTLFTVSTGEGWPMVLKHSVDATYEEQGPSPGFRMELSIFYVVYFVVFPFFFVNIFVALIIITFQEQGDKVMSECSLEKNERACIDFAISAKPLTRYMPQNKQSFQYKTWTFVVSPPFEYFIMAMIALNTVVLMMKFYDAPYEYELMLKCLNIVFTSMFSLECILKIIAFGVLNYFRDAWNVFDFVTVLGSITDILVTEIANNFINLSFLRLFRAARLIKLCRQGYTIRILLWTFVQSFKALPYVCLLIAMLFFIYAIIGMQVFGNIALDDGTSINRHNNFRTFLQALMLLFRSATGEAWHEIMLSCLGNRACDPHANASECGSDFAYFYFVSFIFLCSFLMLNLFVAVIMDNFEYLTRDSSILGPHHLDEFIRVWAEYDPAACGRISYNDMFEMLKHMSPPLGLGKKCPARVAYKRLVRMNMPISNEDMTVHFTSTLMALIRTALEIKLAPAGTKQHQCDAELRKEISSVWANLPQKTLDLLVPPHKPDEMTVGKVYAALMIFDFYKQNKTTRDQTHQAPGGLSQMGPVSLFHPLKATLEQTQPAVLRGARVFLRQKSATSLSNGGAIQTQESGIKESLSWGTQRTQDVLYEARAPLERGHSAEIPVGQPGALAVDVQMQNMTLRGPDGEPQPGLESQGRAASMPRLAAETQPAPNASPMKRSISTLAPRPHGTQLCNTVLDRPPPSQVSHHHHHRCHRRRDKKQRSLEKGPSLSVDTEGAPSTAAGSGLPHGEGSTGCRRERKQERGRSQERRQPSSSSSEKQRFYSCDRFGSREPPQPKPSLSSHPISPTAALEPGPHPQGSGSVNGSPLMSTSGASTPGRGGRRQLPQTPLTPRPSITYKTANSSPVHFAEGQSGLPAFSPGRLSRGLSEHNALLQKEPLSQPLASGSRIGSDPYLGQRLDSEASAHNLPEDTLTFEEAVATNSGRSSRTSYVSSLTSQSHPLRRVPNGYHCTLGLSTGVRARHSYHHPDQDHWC

[10] = system: Calcium Channel L-Type, Benzothiazepine; test: Eurofins panel 214510; assay type: binding, rat; details: 10 µM
[11] = system: primary human fibroblasts; test: Collagen crosslinking in vitro, scar-in-a-jar, LC-MS/MS; assay type: cell-based; parameters: PYD: unit not given beside the values; HLNL / DHLNL / DPD: unit not given here; details: 11 days, biological replicates
Procedure: To determine the effects of PXS-4787 on collagen cross-link formation, primary human fibroblasts from six different participants (six biological replicates) were cultured for 11 days using ‘scar-in-a-jar’ conditions in the presence of 0, 1, and 10 µM of inhibitor. Liquid chromatography with tandem mass spectrometry (LC-MS/MS) was used to measure hydroxyproline and cross-link concentrations in these samples. Hydroxyproline concentration provides a close estimate of collagen concentration as it is present in high concentrations in collagens and is critical to fibril formation.
Primary scar fibroblasts were seeded in a complete media at density 75 × 10^4 cells per well in a T-25 tissue culture flask at 37 °C and 5% CO2. After 16 h the complete media was replaced by the stimulated media ([…] Ficoll 70 and (25 mg/ mL) Ficoll 400, 5 ng/mL TGF-β1, 0.5% FBS, […] L-ascorbic acid-2-phosphate) in DMEM-Glutamax™ supplemented with 0.5% FBS and 1% Penicillin/ Streptomycin and 1 and 10 µM concentrations of PXS-4787 for 11 days to allow time for sufficient crosslinking of extracellular collagen. After 11 days, the media was aspirated and cells were trypsinized for 30 min and reduced with 12 mg/mL Sodium Borohydride in 20 mM Sodium Hydroxide solution followed and incubated for 30 min at room temperature. The pH of the solution was made acidic using 50 µL of neat acetic acid. The solution was centrifuged at 20,000g for 15 min at 4 °C followed by three washes with MilliQ water and samples processed for crosslinking analysis.
Cell pellets or isolated tissue samples were completely hydrolyzed in 1.5 mL 6 M hydrochloric acid for 24 h at 105 °C. After complete hydrolysis, samples were dried using a vacuum dryer and reconstituted using 200 µL MilliQ water. The sample clean-up was performed using solid-phase extraction method which uses C18 and SCX solid-phase extraction cartridges for sample purification. The samples were run on UPLC-MS-MS (Mass Spectrometer: Thermo Scientific TSQ Endura Triple quadrupole, UPLC: Thermo Scientific Dionex UltiMate 3000) using Agilent RRHD SB-C18,2.1x50mm,1.8um analytical column and solvent A: 10 mM ammonium formate, 0.1% formic acid, 0.1% HFBA in H2O and solvent B: 10 mM ammonium formate, 0.1% formic acid, 0.1% HFBA in MeOH and analyzed as previously described. Limits of detection are listed in Supplementary Table S4.

[12] = system: Glutamate, NMDA, Glycine; test: Eurofins panel 232910; assay type: binding, rat; details: 10 µM
[13] = PAMPA permeability; assay type: in vitro ADME
[14] = target: Cyclooxygenase COX-2 (Homo sapiens, UniProt P35354); test: Eurofins panel 118010; assay type: biochemical
[15] = target: Monoamine Oxidase MAO-A (Homo sapiens, UniProt P21397); test: Eurofins panel 140010; assay type: biochemical
[16] = target: Serotonin (5-Hydroxytryptamine) 5-HT1B (Homo sapiens, UniProt P28222); test: Eurofins panel 271230; assay type: binding
[17] = system: MDCKII cells transfected with P-glycoprotein (Pgp); test: MDCKII-Pgp permeability; assay type: in vitro ADME; details: unaffected by the presence of the Pgp-inhibitor
Procedure: The penetration of PXS-6302 across a monolayer of cells was tested using Caco-2 or MDCKII cells transfected with P-glycoprotein (Pgp).

[18] = target: Nicotinic Acetylcholine α1β2, Cytisine (Homo sapiens, UniProt P17787+P43681); test: Eurofins panel 299031; assay type: binding
[19] = target: Vasopressin V1A (Homo sapiens, UniProt P37288); test: Eurofins panel 287530; assay type: binding
Sequence of Vasopressin V1A (P37288 whole entry): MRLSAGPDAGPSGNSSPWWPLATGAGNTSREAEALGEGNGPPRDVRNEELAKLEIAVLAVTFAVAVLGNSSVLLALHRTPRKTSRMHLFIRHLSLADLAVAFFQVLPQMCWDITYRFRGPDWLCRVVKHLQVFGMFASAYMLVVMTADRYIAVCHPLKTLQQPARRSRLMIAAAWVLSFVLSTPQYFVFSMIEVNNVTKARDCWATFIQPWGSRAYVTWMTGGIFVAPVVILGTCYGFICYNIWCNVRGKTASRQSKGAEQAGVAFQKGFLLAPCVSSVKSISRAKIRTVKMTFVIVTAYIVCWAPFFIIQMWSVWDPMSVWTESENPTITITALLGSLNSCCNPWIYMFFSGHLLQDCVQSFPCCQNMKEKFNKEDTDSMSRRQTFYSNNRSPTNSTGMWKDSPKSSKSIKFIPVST

NC/C=C(\F)CS(=O)(=O)c1ccccc1 [PXS-4787]
% Inh. [1]: 2%
inhibition at 10 µM [2]: 0%
inhibition at 10 µM [3]: 7%
inhibition at 10 µM [4]: 1%
inhibition at 10 µM [5]: 6%
% Inh. [6]: 5%
inhibition at 10 µM [7]: 1%
inhibition at 10 µM [8]: -10%
inhibition at 10 µM [9]: 0%
% Inh. [10]: 24%
DHLNL ([11]; 1 µM): 143.775 and 329.16 and 113.02 and 83.13 and 359.48 and 365.16 and 104.82
DPD ([11]; 1 µM): 2.93 and 49.66 and 7.64 and 1.83 and 44.6 and 15.94 and 5.96
HLNL ([11]; 1 µM): 2792.14 and 4779.62 and 1377.5 and 1440.95 and 5514.92 and 6254.02 and 873.64
HYP (hydroxyproline) ([11]; 1 µM): did not reduce and 100208 and 1106205 and 113032 and 54746.7 and 1239040 and 1208884 and 155115
PYD ([11]; 1 µM): 26.445 and 138.7 and 33.16 and 18.555 and 194.48 and 107.58 and 32.22
DHLNL ([11]; 10 µM): 74.25 and 254.16 and 91.76 and 55.65 and 288.12 and 246.36 and 90.12
DPD ([11]; 10 µM): 0 and 24.22 and 4.54 and 21.2 and 6.56 and 3.9
HLNL ([11]; 10 µM): trend reduction and 1564.75 and 3443.58 and 1107.32 and 1868.37 and 4501.9 and 4758.54 and 846.68
HYP (hydroxyproline) ([11]; 10 µM): significantly (p = 0.0385) diminished and 52523.3 and 888147 and 121381 and 44633 and 1404421 and 949167 and 129547
PYD ([11]; 10 µM): 5.86 and 65.12 and 17 and 7.95 and 92.68 and 46.62 and 20.6
% Inh. [12]: 5%

NC/C=C(\F)C(F)(F)S(=O)(=O)c1ccccc1 [PXS-6302]
PAMPA permeability (class in words) [13]: High and high permeability
Papp ([13]; GIT PAMPA at pH 7.4, read-out: PAMPA permeability, Average of P): 168 ×10⁻⁶ cm/s
inhibition at 30 µM [14]: 21%
inhibition at 30 µM [15]: 10%
inhibition at 30 µM [16]: -3%
MDCKII-Pgp permeability (class in words) [17]: high permeability
inhibition at 30 µM [18]: -2%
inhibition at 30 µM [19]: 3%
